Test results taken from patent publication US8377884B2, “Variants of C-type natriuretic peptides” (Biomarin Pharmaceutical Inc., priority 2007, dated 2013).
Bridge positions count the residues as written; N and C are the ends. Square brackets hold non-standard residues; d marks the D form. Peptide text beside a SMILES is read from it. Tle = CC(C)(C)[C@H](N)C(=O)O

Columns and labels:
NPR-B = molecular target: T1, NPR-B (Mus musculus, UniProt Q6VVW5); experiment: Stimulation of cGMP production in NIH3T3 cells; type: cell-based, Murine; settings: NIH3T3 cells, normalized to cell number and cGMP production with 1 uM wtCNP22; for cGMP response relative to 1 uM CNP22 (%) at 0.01 µM: 10 nM natriuretic peptide, read-out: cGMP Response rel. to 1 uM CNP22, 10 nM; for cGMP response relative to 1 uM CNP22 (%) at 1 µM: 1 uM natriuretic peptide, read-out: cGMP Response rel. to 1 uM CNP22, 1 uM
T1 construct: Murine NIH3T3 cells express endogenously the CNP signaling receptor, NPR-B; endogenous in cells; host or cells: NIH3T3 (murine fibroblasts)
T1 sequence (Q6VVW5 17-1047): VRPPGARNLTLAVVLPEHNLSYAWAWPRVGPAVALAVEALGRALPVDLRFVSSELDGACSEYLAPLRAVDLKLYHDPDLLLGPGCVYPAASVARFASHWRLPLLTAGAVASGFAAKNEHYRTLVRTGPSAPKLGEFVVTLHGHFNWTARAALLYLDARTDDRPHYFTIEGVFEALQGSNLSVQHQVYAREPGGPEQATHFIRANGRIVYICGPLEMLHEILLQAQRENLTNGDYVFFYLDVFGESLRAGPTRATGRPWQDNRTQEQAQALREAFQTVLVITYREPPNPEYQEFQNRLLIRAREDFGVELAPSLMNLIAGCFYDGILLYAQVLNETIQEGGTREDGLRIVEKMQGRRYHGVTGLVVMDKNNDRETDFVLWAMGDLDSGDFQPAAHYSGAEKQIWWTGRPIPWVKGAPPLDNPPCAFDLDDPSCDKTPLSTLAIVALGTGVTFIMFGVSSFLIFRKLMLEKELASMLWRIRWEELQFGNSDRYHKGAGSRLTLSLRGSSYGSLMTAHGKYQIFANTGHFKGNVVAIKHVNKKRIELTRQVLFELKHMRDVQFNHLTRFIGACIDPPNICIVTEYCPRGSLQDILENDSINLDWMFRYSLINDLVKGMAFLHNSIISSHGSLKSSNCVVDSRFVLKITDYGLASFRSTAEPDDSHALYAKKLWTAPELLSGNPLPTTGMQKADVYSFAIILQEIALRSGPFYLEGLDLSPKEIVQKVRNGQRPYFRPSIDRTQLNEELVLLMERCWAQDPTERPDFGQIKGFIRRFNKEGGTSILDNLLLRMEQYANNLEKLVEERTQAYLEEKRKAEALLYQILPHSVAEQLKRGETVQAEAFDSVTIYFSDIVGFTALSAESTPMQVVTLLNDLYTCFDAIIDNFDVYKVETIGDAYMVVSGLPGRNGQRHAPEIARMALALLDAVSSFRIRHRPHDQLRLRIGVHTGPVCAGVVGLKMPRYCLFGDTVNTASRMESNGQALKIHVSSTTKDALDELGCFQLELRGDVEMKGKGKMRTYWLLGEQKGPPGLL

Recombinant human NEP = Recombinant human NEP (Homo sapiens, UniProt P08473); experiment: in vitro
Outline: (§1)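 Recombinant human NEP (1 ug/mL final) incubated with 100 uM CNP variant in 0.1 M Tris, pH 7, at 37° C for various times, then quenched with EDTA (10 mM final) and heat. Samples reduced and analysed by HPLC and mass spectrometry. Half-life derived from loss of intact variant over time.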

[1] = molecular target: neutral endopeptidase (NEP) (Homo sapiens, UniProt P08473); experiment: in vitro; settings: human, pH 7
Outline: as §1

neutral endopeptidase (NEP), sequence (P08473 whole entry): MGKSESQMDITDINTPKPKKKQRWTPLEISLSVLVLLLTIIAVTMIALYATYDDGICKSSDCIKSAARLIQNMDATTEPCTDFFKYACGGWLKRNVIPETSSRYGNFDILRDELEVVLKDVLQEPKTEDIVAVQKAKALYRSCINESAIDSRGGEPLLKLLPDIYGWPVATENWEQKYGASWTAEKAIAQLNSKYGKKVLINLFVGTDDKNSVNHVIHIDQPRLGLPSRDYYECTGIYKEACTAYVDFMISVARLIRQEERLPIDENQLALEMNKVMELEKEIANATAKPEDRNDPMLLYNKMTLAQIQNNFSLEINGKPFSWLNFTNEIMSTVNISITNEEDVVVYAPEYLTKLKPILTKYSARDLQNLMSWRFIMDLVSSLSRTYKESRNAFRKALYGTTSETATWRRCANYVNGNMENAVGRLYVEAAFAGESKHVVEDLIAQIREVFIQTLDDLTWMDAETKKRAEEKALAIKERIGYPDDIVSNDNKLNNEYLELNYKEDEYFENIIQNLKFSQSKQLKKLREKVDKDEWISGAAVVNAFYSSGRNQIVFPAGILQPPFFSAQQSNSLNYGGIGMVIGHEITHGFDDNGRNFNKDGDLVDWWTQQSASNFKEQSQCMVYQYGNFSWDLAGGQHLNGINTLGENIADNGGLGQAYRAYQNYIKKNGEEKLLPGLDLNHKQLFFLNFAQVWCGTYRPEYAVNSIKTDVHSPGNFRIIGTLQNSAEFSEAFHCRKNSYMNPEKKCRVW
Recombinant human NEP, sequence (P08473 whole entry): as above

cGMP response relative to 1 uM CNP22 (%) at 0.01 µM (NPR-B) [%] | cGMP response relative to 1 uM CNP22 (%) at 1 µM (NPR-B) [%] | resistance to NEP cleavage/degradation (in words) (Recombinant human NEP) | half-life at 100 uM [1] [h] | resistance to cleavage at the Cys6-Phe7 bond relative to wtCNP22 (Recombinant human NEP) | half-life at 100 uM ([1]; recombinant human neutral endopeptidase (NEP)) [h] | Compound
2 | 32 | most resistant to NEP degradation | ≥ 2.67 | – | – | CC[C@H](C)[C@@H]1NC(=O)[C@H](CCCNC(=N)N)NC(=O)[C@H](CC(=O)O)NC(=O)[C@H](CC(C)C)NC(=O)[C@H](CCCCN)NC(=O)[C@H](CC(C)C)NC(=O)CNC(=O)[C@H](Cc2ccccc2)NC(=O)[C@@H](NC(=O)CNC(=O)[C@H](CCCNC(=N)N)NC(=O)[C@H](CO)NC(=O)[C@H](CC(C)C)NC(=O)CNC(=O)[C@H](CCC(N)=O)NC(=O)[C@H](CCC(N)=O)NC(=O)[C@H](CC(N)=O)NC(=O)[C@H](C)NC(=O)CNC(=O)[C@@H](NC(=O)[C@H](Cc2ccc(O)cc2)NC(=O)[C@@H](NC(=O)[C@H](CCC(N)=O)NC(=O)[C@@H]2CCCN2C(=O)[C@H](CCC(=O)O)NC(=O)[C@H](CCCNC(=N)N)NC(=O)[C@@H]2CCCN2C(=O)[C@H](CCC(N)=O)NC(=O)CN)C(C)C)[C@@H](C)O)CSSC[C@@H](C(=O)O)NC(=O)CNC(=O)[C@H](CC(C)C)NC(=O)CNC(=O)[C@H](CO)NC(=O)[C@H](CCSC)NC(=O)[C@H](CO)NC(=O)CNC1=O [CK] (H-GQPREPQVYTGANQQGLSRGCFGLKLDRIGSMSGLGC-OH; disulfide 21-37 (inferred); N-terminus and C-terminus assumed)
3 | 35 | most resistant to NEP degradation | > 2.67 | – | – | CC[C@H](C)[C@@H]1NC(=O)[C@H](CCCNC(=N)N)NC(=O)[C@H](CC(=O)O)NC(=O)[C@H](CC(C)C)NC(=O)[C@H](CCCCN)NC(=O)[C@H](CC(C)C)NC(=O)CNC(=O)[C@H](Cc2ccccc2)NC(=O)[C@@H](NC(=O)CNC(=O)[C@H](CCCNC(=N)N)NC(=O)[C@H](CO)NC(=O)[C@H](CC(C)C)NC(=O)CNC(=O)[C@H](CCC(N)=O)NC(=O)[C@H](CCC(N)=O)NC(=O)[C@H](CC(N)=O)NC(=O)[C@H](C)NC(=O)CNC(=O)[C@@H](NC(=O)[C@H](CO)NC(=O)[C@@H](NC(=O)[C@H](CO)NC(=O)[C@@H](NC(=O)[C@H](CCC(N)=O)NC(=O)[C@@H]2CCCN2C(=O)[C@@H](NC(=O)CN)C(C)C)C(C)C)[C@@H](C)O)[C@@H](C)O)CSSC[C@@H](C(=O)O)NC(=O)CNC(=O)[C@H](CC(C)C)NC(=O)CNC(=O)[C@H](CO)NC(=O)[C@H](CCSC)NC(=O)[C@H](CO)NC(=O)CNC1=O [CL] (H-GVPQVSTSTGANQQGLSRGCFGLKLDRIGSMSGLGC-OH; disulfide 20-36 (inferred); N-terminus and C-terminus assumed)
2 | 18 | – | – | resistance or improved resistance | 1.33 | CC[C@H](C)[C@@H]1NC(=O)[C@H](CCCNC(=N)N)NC(=O)[C@H](CC(=O)O)NC(=O)[C@H](CC(C)C)NC(=O)[C@H](CCCCN)NC(=O)[C@H](CC(C)C)NC(=O)[C@H](C(C)(C)C)NC(=O)[C@H](Cc2ccccc2)NC(=O)[C@@H](NC(=O)CNC(=O)[C@H](CCCCN)NC(=O)[C@H](CO)NC(=O)[C@H](CC(C)C)NC(=O)CN)CSSC[C@@H](C(=O)O)NC(=O)CNC(=O)[C@H](CC(C)C)NC(=O)CNC(=O)[C@H](CO)NC(=O)[C@H](CCSC)NC(=O)[C@H](CO)NC(=O)CNC1=O [F] (H-GLSKGCF[Tle]LKLDRIGSMSGLGC-OH; disulfide 6-22 (inferred); N-terminus and C-terminus assumed)
